According to US6525053B1, “Prostaglandin endoperoxide H synthase biosynthesis inhibitors” (Abbott Laboratories, priority 1997, dated 2003):

Biological target: T1, recombinant human Cox-2 (Homo sapiens, UniProt P35354)
T1 construct: made in house; host or cells: baculovirus/Sf9 insect cells (microsomes)
T1 sequence (P35354 18-604): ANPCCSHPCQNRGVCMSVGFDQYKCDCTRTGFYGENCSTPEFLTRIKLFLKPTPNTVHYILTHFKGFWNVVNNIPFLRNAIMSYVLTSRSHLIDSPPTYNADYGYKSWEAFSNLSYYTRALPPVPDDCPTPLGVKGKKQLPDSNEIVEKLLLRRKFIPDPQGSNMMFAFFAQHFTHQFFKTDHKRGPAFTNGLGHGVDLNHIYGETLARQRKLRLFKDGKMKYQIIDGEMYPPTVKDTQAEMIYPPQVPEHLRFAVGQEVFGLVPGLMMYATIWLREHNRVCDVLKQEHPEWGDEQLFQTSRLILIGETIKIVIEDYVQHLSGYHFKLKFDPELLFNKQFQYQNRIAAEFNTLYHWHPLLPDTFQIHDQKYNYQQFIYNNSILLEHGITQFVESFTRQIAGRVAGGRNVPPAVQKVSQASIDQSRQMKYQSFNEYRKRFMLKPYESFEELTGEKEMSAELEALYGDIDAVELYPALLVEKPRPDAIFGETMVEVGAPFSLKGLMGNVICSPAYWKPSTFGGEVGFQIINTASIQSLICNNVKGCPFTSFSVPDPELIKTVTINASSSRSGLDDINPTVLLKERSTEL
Experiment: Recombinant human PGHS-2 (Cox-2) enzyme assay, PGE2 by EIA
Assay type: biochemical
Conditions: at 1000 nM
Method: To compare the mean responses of the treatment groups, analysis of variance was applied. Percent inhibition values were determined by comparing the individual treatment mean values to the mean of the control group. Linear regression was used to estimate IC50's/ED50's in appropriate assays.
EIA reagents for prostaglandin determination were purchased from Perseptive Diagnostics, (Cambridge, Mass.). PGE2 levels in lavage fluids were determined after the samples were dried under nitrogen and reconstituted with assay buffer. PGE2 levels in enzyme assays or cell culture media were measured against standards prepared in the same milieu. The immunoassays were conducted as recommended by the manufacturer. The EIA was conducted in 96 well microtiter plates (Nunc Roskilde, Denmark) and optical density was measured using a microplate reader (Vmax, Molecular Devices Corp., Menlo Park, Calif.).
Inhibition of prostaglandin biosynthesis in vitro was evaluated using recombinant human Cox-1 (r-hu Cox1) and Cox-2 (r-hu Cox2) enzyme assays. […] PGE2 production in the presence and absence of the drug was determined by EIA analysis. The EIA was conducted in 96 well microtiter plates (Nunc Roskilde, Denmark) and optical density was measured using a microplate reader (Vmax, Molecular Devices Corp., Menlo Park, Calif.). […] PGE2 levels were measured against standards prepared in the same milieu. […]

| RHUCX2 Cox-2 percent inhibition | Compound |
| --- | --- |
| 46 @ 1000% | CS(=O)(=O)c1ccc(-c2cc(=O)n(CC(F)(F)F)nc2-c2ccc(F)cc2)cc1 [Example 22, 2-(2,2,2-Trifluoroethyl)-5-(4-methylsulfonylphenyl)-6-(4-fluorphenyl)-3(2H)-pyridazinone] |

Tested on: not given
Experiment: not given
Conditions: not given

| Compound | melting point |
| --- | --- |
| CS(=O)(=O)c1ccc(-c2cc(=O)[nH]nc2-c2ccc(F)cc2)cc1 [Example 6, 5-(4-Methylsulfonylphenyl)-6-(4-fluorophenyl)-3(2H)-pyridazinone] | 260 to 262 °C |
| Cn1nc(-c2ccc(F)cc2)c(-c2ccc(S(C)(=O)=O)cc2)cc1=O [Example 8, 2-Methyl-5-(4-methylsulfonylphenyl)-6-(4-fluorophenyl)-3(2H)-pyridazinone] | 181 to 182 °C |
| CCCCCn1nc(-c2ccc(F)cc2)c(-c2ccc(S(C)(=O)=O)cc2)cc1=O [Example 14, 2-(n-Pentyl)-5-(4-methylsulfonylphenyl)-6-(4-fluorophenyl)-3(2H)-pyridazinone] | 65 to 67 °C |
| CS(=O)(=O)c1ccc(-c2cc(=O)n(Cc3ccccc3)nc2-c2ccc(F)cc2)cc1 [Example 7, 2-Benzyl-5-(4-methylsulfonylphenyl)-6-(4-fluorophenyl)-3(2H)-pyridazinone] | 172 to 174 °C |
| CC(c1ccc(F)cc1)n1nc(-c2ccc(F)cc2)c(-c2ccc(S(C)(=O)=O)cc2)cc1=O (stereo not drawn) [Example 12, 2-(4-Fluoro-α-methylbenzyl)-5-(4-methylsulfonylphenyl)-6-(4-fluorophenyl)-3(2H)-pyridazinone] | 185 to 186 °C |
| CS(=O)(=O)c1ccc(-c2cc(=O)n(Cc3ccc(F)cc3)nc2-c2ccc(F)cc2)cc1 [Example 10, 2-(4-Fluorobenzyl)-5-(4-methylsulfonylphenyl)-6-(4-fluorophenyl)-3(2H)-pyridazinone] | 150 to 151 °C |
| CC(C)=CCn1nc(-c2ccc(F)cc2)c(-c2ccc(S(C)(=O)=O)cc2)cc1=O [Example 21] | 71 to 72 °C |
| CS(=O)(=O)c1ccc(-c2cc(=O)n(CC(=O)c3ccccc3)nc2-c2ccc(F)cc2)cc1 [Example 16, 2-Phenacyl-5-(4-methylsulfonylphenyl)-6-(4-fluorophenyl)-3(2H)-pyridazinone] | 178 to 180 °C |

More lines, now with the values ahead:

| melting point | Compound |
| --- | --- |
| 86 to 90 °C | CS(=O)(=O)c1ccc(-c2cc(=O)n(C3CCCCC3)nc2-c2ccc(F)cc2)cc1 [Example 18, 2-Cyclohexyl-5-(4-methylsulfonylphenyl)-6-(4-fluorophenyl)-3(2H)-pyridazinone] |
| 168 to 169 °C | C#CCn1nc(-c2ccc(F)cc2)c(-c2ccc(S(C)(=O)=O)cc2)cc1=O [Example 17, 2-Propargyl-5-(4-methylsulfonylphenyl)-6-(4-fluorophenyl)-3(2H)-pyridazinone] |
| 81 to 82 °C | CC#CCn1nc(-c2ccc(F)cc2)c(-c2ccc(S(C)(=O)=O)cc2)cc1=O [Example 19, 2-(2-Butyn-1-yl)-5-(4-methylsulfonylphenyl)-6-(4-fluorophenyl)-3(2H)-pyridazinone] |
| 111 to 113 °C | CCCCn1nc(-c2ccc(F)cc2)c(-c2ccc(S(C)(=O)=O)cc2)cc1=O [Example 11, 2-(n-Butyl)-5-(4-methylsulfonylphenyl)-6-(4-fluorophenyl)-3(2H)-pyridazinone] |
| 130 to 132 °C | CS(=O)(=O)c1ccc(-c2cc(=O)n(CC3CC3)nc2-c2ccc(F)cc2)cc1 [Example 23, 2-(Cyclopropylmethyl)-5-(4-methylsulfonylphenyl)-6-(4-fluorophenyl)-3(2H)-pyridazinone] |
| 177 to 179 °C | CCn1nc(-c2ccc(F)cc2)c(-c2ccc(S(C)(=O)=O)cc2)cc1=O [Example 9, 2-Ethyl-5-(4-methylsulfonylphenyl)-6-(4-fluorophenyl)-3(2H)-pyridazinone] |
| 191 to 192 °C | CS(=O)(=O)c1ccc(-c2cc(=O)n(C3CCCC3)nc2-c2ccc(F)cc2)cc1 [Example 25, 2-Cyclopentyl-5-(4-methylsulfonylphenyl)-6-(4-fluorophenyl)-3(2H)-pyridazinone] |
| 74 to 76 °C | CS(=O)(=O)c1ccc(-c2cc(=O)n(CC3CCC3)nc2-c2ccc(F)cc2)cc1 [Example 20, 2-(Cyclobutylmethyl)-5-(4-methylsulfonylphenyl)-6-(4-fluorophenyl)-3(2H)-pyridazinone] |
| 76 to 77 °C | CS(=O)(=O)c1ccc(-c2cc(=O)n(CC3CCCC3)nc2-c2ccc(F)cc2)cc1 [Example 24, 2-Cyclopentylmethyl-5-(4-methylsulfonylphenyl)-6-(4-fluorophenyl)-3(2H)-pyridazinone] |
| 175 to 176 °C | CS(=O)(=O)c1ccc(-c2cc(=O)n(CC3CCCCC3)nc2-c2ccc(F)cc2)cc1 [Example 15, 2-Cyclohexylmethyl-5-(4-methylsulfonylphenyl)-6-(4-fluorophenyl)-3(2H)-pyridazin-one] |
| 155 to 157 °C | CCCn1nc(-c2ccc(F)cc2)c(-c2ccc(S(C)(=O)=O)cc2)cc1=O [Example 13, 2-(n-Propyl)-5-(4-methylsulfonylphenyl)-6-(4-fluorophenyl)-3(2H)-pyridazinone] |
